As a reminder, the pEC50 is the negative decadic logarithm of the EC50, by convention in mol/L. High values mean a small EC50, low ones a large EC50. Usually pIC50 stands for the negative decadic logarithm of the IC50, by convention in mol/L. A word on the MIC: it is the least concentration at which growth counts as inhibited.

pEC50, pIC50: −log10 of the molar value. ≈ marks a conversion by molar mass, not a printed value.

The values that follow come from ChEMBL document CHEMBL1127899, “Potent, acid-stable and orally active macrolide-type motilin receptor agonists, GM-611 and the derivatives” (Bioorg Med Chem Lett, 1994).

Experiment [1] has as its system Canis familiaris. Kind of experiment: Tested for in vivo smooth muscle contractile activity, expressed as MI100 (dose to give 100 of motor index after iv administration). The format is functional, Canis lupus familiaris, Muscle tissue.
The species entered for experiment [2] is Oryctolagus cuniculus. The experiment in a line: Concentration required for in vitro smooth muscle contractile activity of the compound, expressed as negative logarithm of EC50. The format is functional. Particulars: Muscle tissue.
The target of experiment [3] is T1, Motilin receptor (Oryctolagus cuniculus, UniProt A5A4K8). Kind of experiment: Concentration required for in vitro motilin receptor binding, expressed as negative logarithm of IC50.
For experiment [4], the target named is T1, Motilin receptor. Kind of experiment: Concentration required for in vitro acid stability with hydrochloric acid solution (pH 2.5 ) at room temperature for 2 hr by assaying the solution for motilin receptor binding.
Experiment [5] concerns Streptococcus pneumoniae. The experiment in a line: Antibacterial activity against Streptococcus pneumoniae No.12, activity expressed as MIC. The format is functional.
Experiment [6] relates to Canis familiaris. Kind of experiment: Tested for in vivo smooth muscle contractile activity, expressed as MI100 (dose to give 100 of motor index after ig administration). The format is functional, Canis lupus familiaris, Muscle tissue.
Experiment [7] concerns Bacillus subtilis. The experiment in a line: Antibacterial activity against Bacillus subtilis ATCC 6633, activity expressed as MIC. The format is functional.
Experiment [8] concerns Klebsiella pneumoniae. Kind of experiment: Antibacterial activity against Klebsiella pneumoniae IFO 3512, activity expressed as MIC. The format is functional.
Experiment [9] deals with Staphylococcus aureus. The experiment in a line: Antibacterial activity against Staphylococcus aureus 209P, activity expressed as MIC. The format is functional.
The subject of experiment [10] is Escherichia coli. The experiment in a line: Antibacterial activity against Escherichia coli NIHJ JC-2, activity expressed as MIC. The format is functional.

T1 sequence (A5A4K8 whole entry): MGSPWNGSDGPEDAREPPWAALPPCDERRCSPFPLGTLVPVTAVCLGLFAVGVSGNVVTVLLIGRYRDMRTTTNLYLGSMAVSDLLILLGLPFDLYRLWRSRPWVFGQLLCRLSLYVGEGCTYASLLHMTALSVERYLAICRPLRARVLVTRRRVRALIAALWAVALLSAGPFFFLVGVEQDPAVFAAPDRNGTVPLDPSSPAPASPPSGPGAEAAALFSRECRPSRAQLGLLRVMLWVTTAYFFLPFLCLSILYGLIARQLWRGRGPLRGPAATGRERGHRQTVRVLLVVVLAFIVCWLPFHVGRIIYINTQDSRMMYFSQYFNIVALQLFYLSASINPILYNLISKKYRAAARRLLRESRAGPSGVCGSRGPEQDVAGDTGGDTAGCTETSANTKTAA

Turning to `CCC1OC(=O)C(C)C(O[C@H]2C[C@@](C)(OC)[C@@H](O)C(C)O2)C(C)[C@@H](OC2OC(C)CC(N(C)CC)[C@H]2O)[C@]2(C)CC(C)=C(O2)[C@H](C)C(=O)[C@]1(C)OC` (some centres undefined), the MI100 is 1.1 µg/kg in experiment [1] and 4.3 µg/kg in experiment [6]. In [2], this molecule had a negative-log EC50 (pEC50) of 7.36. The results for the pIC50 in [3] and in [4] were 8.42 and 8.19, respectively. The molecule also displayed an MIC in experiment [5] of 50 µg/mL (≈ 67.4 µM).

In the case of `CCC1OC(=O)C(C)C(O[C@H]2C[C@@](C)(OC)[C@@H](O)C(C)O2)C(C)[C@@H](OC2OC(C)CC(N(C)CC)[C@H]2O)[C@]2(C)CC(C)=C(O2)[C@H](C)[C@@H](O)[C@]1(C)O` (some centres undefined), the figures for the MI100 in experiment [1] and in experiment [6] were 0.9 µg/kg and 14.9 µg/kg, respectively. In experiment [2], this molecule had a pEC50 of 7.32. For the same molecule, the results for the minimum inhibitory concentration (MIC) in [7] and in experiment [5] were 100 µg/mL (≈ 137 µM) and 25 µg/mL (≈ 34.2 µM), respectively. For the same molecule, the pIC50 in [3] was 8.50; in experiment [4] it was 6.52.

In the case of `CCC1OC(=O)C(C)C(O[C@H]2C[C@@](C)(OC)[C@@H](O)C(C)O2)C(C)[C@@H](OC2OC(C)CC(N(C)C)[C@H]2O)[C@]2(C)CC(C)=C(O2)[C@H](C)C(=O)[C@]1(C)OC` (some centres undefined), the MI100 in experiment [1] worked out at 2.9 µg/kg; in [6], 2.4 µg/kg. Besides, the MIC in [8] worked out at 100 µg/mL (≈ 137 µM); in experiment [7], 6.3 µg/mL (≈ 8.65 µM); in experiment [9], 13 µg/mL (≈ 17.9 µM); in experiment [5] it was 3.1 µg/mL (≈ 4.26 µM). The same molecule gave a pEC50 in experiment [2] of 6.93. Further, the results for the negative logarithm of the IC50 (pIC50) in experiment [3] and in [4] were 8.04 and 8.05, respectively.

`CCC1OC(=O)C(C)C(O[C@H]2C[C@@](C)(OC)[C@@H](O)C(C)O2)C(C)[C@@H](OC2OC(C)CC(N(C)C(C)C)[C@H]2O)[C@]2(C)CC(C)=C(O2)[C@H](C)C(=O)[C@]1(C)OC` (some centres undefined): the MI100 in experiment [1] turned out to be 1 µg/kg; in experiment [6], 1.5 µg/kg. Besides, the pEC50 in experiment [2] is 7.41. For the same molecule, the pIC50 was 8.22 in experiment [3] and 8.10 in [4].

As for `CCC1OC(=O)C(C)C(O[C@H]2C[C@@](C)(OC)[C@@H](O)C(C)O2)C(C)[C@@H](OC2OC(C)CC(N(C)C)[C@H]2O)[C@]2(C)CC(C)C3(O[C@]1(C)[C@H](O)[C@H]3C)O2` (some centres undefined), the MI100 in [1] is more than 70 µg/kg. In experiment [2], this molecule gave a negative logarithm of the EC50 (pEC50) of less than 5.00. The negative-log IC50 (pIC50) in [3] was 6.81; in experiment [4], 6.77.

On to `CC[C@H]1OC(=O)[C@H](C)[C@@H](O[C@H]2C[C@@](C)(OC)[C@@H](O)[C@H](C)O2)[C@H](C)[C@@H](O[C@@H]2O[C@H](C)C[C@H](N(C)C)[C@H]2O)[C@@]2(C)CC(C)=C(O2)[C@H](C)[C@@H](O)[C@]1(C)O`, for which the MI100 in [1] came out at 1 µg/kg. Also, the pEC50 in experiment [2] is 7.38. Also, the negative-log IC50 (pIC50) is 8.47 in [3] and 6.65 in experiment [4].

In experiment [1], `CCC1OC(=O)C(C)C(O[C@H]2C[C@@](C)(OC)[C@@H](O)C(C)O2)C(C)[C@@H](OC2OC(C)CC(N(C)C)[C@H]2O)[C@@](C)(O)C[C@@H](C)C(=O)[C@H](C)[C@@H](O)[C@]1(C)O` (some centres undefined) showed an MI100 of 32.3 µg/kg. Besides, the MIC in experiment [8] is 6.3 µg/mL (≈ 8.58 µM); in experiment [7] it was 0.39 µg/mL (≈ 0.531 µM); in [10], 100 µg/mL (≈ 136 µM); in experiment [9], 0.39 µg/mL (≈ 0.531 µM); in experiment [5], 0.1 µg/mL (≈ 0.136 µM). This molecule also gave a pEC50 in experiment [2] of 6.50. Also, the pIC50 was 7.36 in experiment [3] and 7.15 in experiment [4].
